This assay deals with Saccharomyces cerevisiae α-glucosidase (Saccharomyces cerevisiae, UniProt P53341). The experiment in a line: Inhibition kinetic of α-glucosidase (Lineweaver–Burk and Michaelis–Menten fits). It is filed as biochemical. How it is done: The data were fitted into both the Lineweaver–Burk and the Michaelis–Menten equation to determine the inhibition mode of the α-glucosidase for each of the COS mixtures.
The kinetic parameters, i.e., KM, Vmax, and the kinetic constants (Ki and Kii), were determined by fitting the data into the Michaelis–Menten equation [40] using the GraphPad Prism 8.0 software programs (GraphPad Inc., La Jolla, CA, USA) for Windows. The Michaelis–Menten equation, which expresses a relationship between the substrate concentration and the reaction velocity is given as follows:(3) V=Vmax [S]/ KM(1+[I]/Ki)+[S](1+[I]/Kii) where Ki represents the kinetic binding constants of the free enzymes, Kii represents the kinetic binding constant of the enzyme–substrate complex, V represents the velocity, Vmax represents the maximum velocity, KM represents the Michaelis’ constant, [S] represents the substrate concentration, and [I] represents the inhibitor concentration. The α values were calculated to determine the inhibition modes and the inhibitor binding preference.

These results are taken from paper PMC9740910, “Influence of Degree of Polymerization of Low-Molecular-Weight Chitosan Oligosaccharides on the α-Glucosidase Inhibition” (Molecules, 2022).

Chain of Saccharomyces cerevisiae α-glucosidase (P53341 whole entry): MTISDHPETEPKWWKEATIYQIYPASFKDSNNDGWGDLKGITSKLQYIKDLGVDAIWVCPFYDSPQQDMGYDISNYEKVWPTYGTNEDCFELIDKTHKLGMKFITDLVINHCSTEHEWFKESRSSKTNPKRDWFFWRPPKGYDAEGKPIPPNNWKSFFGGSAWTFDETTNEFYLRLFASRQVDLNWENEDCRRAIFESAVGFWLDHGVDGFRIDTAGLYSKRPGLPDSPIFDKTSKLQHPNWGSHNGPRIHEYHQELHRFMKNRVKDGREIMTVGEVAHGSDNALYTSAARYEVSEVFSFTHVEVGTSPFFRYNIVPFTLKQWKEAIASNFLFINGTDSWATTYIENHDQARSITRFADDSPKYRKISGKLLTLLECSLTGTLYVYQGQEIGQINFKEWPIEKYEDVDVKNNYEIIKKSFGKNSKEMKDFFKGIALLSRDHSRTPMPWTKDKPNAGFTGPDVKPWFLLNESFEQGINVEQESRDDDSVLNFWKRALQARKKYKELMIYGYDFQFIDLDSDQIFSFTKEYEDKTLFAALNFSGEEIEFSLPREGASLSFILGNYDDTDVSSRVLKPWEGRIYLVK

Take `C[C@H]1O[C@H](O[C@H]2[C@H](O)[C@@H](O)[C@@H](O[C@H]3[C@H](O)[C@@H](O)C(O)O[C@@H]3CO)O[C@@H]2CO)[C@H](O)[C@@H](O)[C@@H]1N[C@H]1C=C(CO)[C@@H](O)[C@H](O)[C@H]1O` (some centres unmarked) [Acarbose, acarbose]: the “Type of Inhibition” value is “Competitive” and the “α value from mixed-mode inhibition” value came out at 1.86.
